Experiment [1] concerns triple-negative breast cancer. The following applies: third-line treatment; cited from earlier work.
For a further experiment, the system named is small cell lung cancer. The following applies: 50 patients with small cell lung cancer; cited from earlier work.
A further experiment concerns advanced NSCLC. The following applies: patients with advanced NSCLC; cited from earlier work.
The subject of another experiment is NSCLC. As to conditions: 44 patients with NSCLC; cited from earlier work.
The target in experiment [2] is T1, Human TROP-2/TACSTD2 Protein, His Tag (ACRO, catalog No. TR2-H5223) (human, UniProt P09758 27-274).
T1 construct: extracellular domain; Bought protein; also called Trop2-His; Trop2-His antigen; not shown: His tag
T1 sequence (looked up): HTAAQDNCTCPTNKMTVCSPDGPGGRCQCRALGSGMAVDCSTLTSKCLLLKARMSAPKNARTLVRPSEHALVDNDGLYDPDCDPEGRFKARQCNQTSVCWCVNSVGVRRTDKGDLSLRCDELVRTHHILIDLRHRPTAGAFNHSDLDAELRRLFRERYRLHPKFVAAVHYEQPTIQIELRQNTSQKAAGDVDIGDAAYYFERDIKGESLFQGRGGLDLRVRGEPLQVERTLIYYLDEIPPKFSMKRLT
Nature of the experiment: phage ELISA, Trop2-His coated at 1 µg/mL, anti-M13-HRP detection.

As to Sacituzumab govitecan [IMMU-132], in experiment [1], the disease control rate was 45%, the “patients who experienced tumor shrinkage at least once” value was 74% and the “progression-free survival (PFS) rate” value was 33.3%. Also, in the experiment with small cell lung cancer, the ORR was 14%, the PFS is on record as 3.7 months and the “clinical benefit rate (complete response + partial response + stable disease ≥ 4 months)” value is given as 34%. Further, in the experiment with advanced NSCLC, the overall survival is listed as 9.5 months. Besides, in the experiment on NSCLC, the PFS is 5.2 months, the “clinical benefit rate (complete response + partial response + stable disease ≥ 4 months)” value is 43% and the “objective response rate (ORR)” value is 19%.

B1: anti-Trop2 positive clone 3 (T3), phage scFv (scFv)
scFv: DIQMTQSPSTLSASVGDRVTITCRASQSISSWLAWYQQKPGKAPKLLIYKASSLESGVPPRFSGSGSGAEFTLTISSLQPDDFATYYCQQYNSYPLTFGGGTKVEVKGGGGSGGGGSGGGGSEVQLVQSGGGLVQPGGSLRLSCEDSGFTFSSYWMSWVRQAPGKGLEWVSSISSSSSYIYYADSVKGRFTISRDNAKNSLYLQMNSLRGEDTAVYYCAREQSSSGFDYWGQGTLVTVSS
notes: also called T3 clone; T3 anti-Trop2 scFv
For the molecule B1, the binding result in experiment [2] is recorded as “binds”.

The values above are taken from EP4800036A1, “ANTIBODY OR TROP2 ANTIGEN BINDING FRAGMENT BINDING TO TROP2, ANTI-TROP2 CAR, AND USE” (priority 2023, dated 2025).
